Assay [1] deals with caspases 9. Briefly: Caspases 9 activation in HL60 cells (LEHD reagent). It is filed as cell-based, human. The conditions noted are these: 48 hours, 1 μM, 0.1 μM and 0.01 μM. The source says: 7223, using standard commercially available diagnostic kits (Calbiochem, USA). Assay reagents used were DEVD for caspases 3/7, […] for caspases 8, and LEHD for caspases 9. Moreover, colchicine was used as reference compound that induces this activity of caspases.

Assay [2] concerns the target T1, PPARγ (Homo sapiens, UniProt P37231).
T1 construct: endogenous in cells; host or cells: MCF-7
Briefly: PPAR in vitro cellular (transactivation) assay in MCF-7 cells. The assay is classed as cell-based. On the procedure: Compounds BPM18,708 and BPM19,107 were selected as representative analogues and tested in a PPAR in vitro cellular assay. Thiazolidinediones rosiglitazone and troglitazone were used as reference PPARγ agonists.
For transfection experiments, MCF-7 cells were cultured in six-well plates in 2 ml DMEM:F12 supplemented with 5% FBS. When cells were 50-60% confluent, siRNA duplexes and/or reporter gene constructs were transfected using OligofectAMINE reagent (Invitrogen). According to methods described in previous studies siRNAs were transfected in each well to give a final concentration of 70 nM. Cells were harvested in 48-56 h after transfection by manual scraping in lysis buffer (Promega). Whole cell extracts were frozen in liquid nitrogen for 30 s, vortexed by 30 s, and centrifuged to give lysates cell lysates from this experiment were analyzed for PPARγ protein by Western blot analysis. Relative intensities of the PPARγ protein were compared with a nonspecific band and results of three replicate studies were determined in the various treatment groups.
Whole cell lysates were extracted using Western sampling buffer. Protein samples were heated at 100 C for 5 min, separated on 10% SDS-PAGE and transferred to polyvinylidene difluoride (PVDF) membrane (Amersham Pharmacia Biotech, Piscataway, N.J.). […]

Assay [3] deals with Hs683 (human glioma). Kind of assay: Growth inhibition, MTT colorimetric assay, HS683. It is filed as cell-based. The conditions noted are these: Homo sapiens, Hs 683, 72 h; glioma; 3 days with drug; means of six values; unit inferred; read-out: IC50 HS683. An outline of the steps: (§1)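 Human tumour cell lines were exposed to compounds for 3 days. Proliferation inhibition was read by MTT colorimetric assay and expressed as IC50. Values are means of six determinations.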

The test system of assay [4] is T98G (glioblastoma). Kind of assay: cells. It is filed as cell-based. As to conditions: Homo sapiens, T98G, 72 h; glioma; 3 days with drug; means of six values; unit inferred; read-out: IC50 T98G. An outline of the steps: as §1
Assay [5] relates to U373 (human glioblastoma-astrocytoma). Briefly: Growth inhibition, MTT colorimetric assay, U373. It is filed as cell-based. As to conditions: Homo sapiens, U373 MG, 72 h; glioma; 3 days with drug; means of six values; unit inferred; read-out: IC50 U373. The procedure, abridged:
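MTT colorimetric measurement of proliferation gives the IC50, averaged from six separate values. Drug exposure lasted 3 days.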

Assay [6] has as its system GL19. Briefly: Growth inhibition, MTT colorimetric assay, GL19. The conditions noted are these: GL19, 72 h; 3 days with drug; means of six values; unit inferred; read-out: IC50 GL19. It is filed as cell-based. An outline of the steps:
(§2)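 Growth inhibition: cells cultured with drug 3 days, then MTT colorimetric readout. Cytotoxic activity given as IC50.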

Assay [7] relates to SKMEL28 (human melanoma). Briefly: Growth inhibition, MTT colorimetric assay, SKMEL-28. The assay is classed as cell-based. The conditions noted are these: Homo sapiens, SK-MEL-28, 72 h; melanoma; 3 days with drug; means of six values; unit inferred; read-out: IC50 SKMEL-28. An outline of the steps: as §2

Some results are limits rather than exact numbers.

T1 sequence (P37231 whole entry): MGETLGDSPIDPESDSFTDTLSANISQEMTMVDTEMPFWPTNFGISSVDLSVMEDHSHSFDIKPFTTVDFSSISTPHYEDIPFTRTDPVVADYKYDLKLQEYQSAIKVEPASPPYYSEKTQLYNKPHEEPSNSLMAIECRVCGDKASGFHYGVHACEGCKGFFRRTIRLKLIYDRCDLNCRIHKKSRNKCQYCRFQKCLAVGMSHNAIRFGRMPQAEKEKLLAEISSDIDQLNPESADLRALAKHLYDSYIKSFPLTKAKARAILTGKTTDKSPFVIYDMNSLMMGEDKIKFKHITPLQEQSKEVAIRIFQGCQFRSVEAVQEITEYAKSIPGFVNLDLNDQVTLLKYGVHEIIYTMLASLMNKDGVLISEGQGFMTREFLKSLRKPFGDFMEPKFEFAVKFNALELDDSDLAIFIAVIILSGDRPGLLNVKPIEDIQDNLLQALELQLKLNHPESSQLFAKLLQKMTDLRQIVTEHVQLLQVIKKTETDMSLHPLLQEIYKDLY

Consider `Oc1ccc(CN(Cc2ccc(C(F)(F)F)cc2)Cc2ccc(O)c3ncccc23)c2cccnc12` [BPM18,708, 5,5′-(4-(trifluoromethyl)benzylazanediyl)bis(methylene)diquinolin-8-ol], for which the “activation of caspases 9” value in assay [1] is given as “no effect”. The “PPARγ ligand/agonist activity in transactivation assays” value in assay [2] is “ligands and agonists of PPARγ”. Also, the IC50 in assay [3] was 10 nM; in assay [4], 99 nM; in assay [5] it was 44 nM; in assay [6], 1240 nM; in assay [7], greater than 10 µM.
